Assay results reported in paper PMC6600592, “Design, Synthesis, and Bioactive Screen In Vitro of Cyclohexyl (E)-4-(Hydroxyimino)-4-Phenylbutanoates and Their Ethers for Anti-Hepatitis B Virus Agents” (Molecules, 2019).
Like-named read-outs stand apart in the source and are kept apart here.

Assays:
[1] = Cytotoxicity in HepG 2.2.15 cells (MTT assay, nine days); type: cell-based, human; settings: human, after nine days, read-out: CC50 (50% cytotoxicity concentration)
Experimental: (§1) These synthesized compounds were evaluated for anti-HBV activity with referring to reported method. The HepG2.2.15 cell, a human hepatoblastoma cell line stably transfected with cloned HBV DNA, was obtained from Chinese Academy of Medical Sciences (Beijing, China), and was cultured in Dulbecco’s Modified Eagle’s Medium (DMEM) supplemented with 10% fetal bovine serum and 1.5 g/L of sodium bicarbonate, 10 mL/L of streptomycin, 10 mL/L of penicillin, and 200 mg/L of G418 at 37 °C in a 5% CO2 atmosphere with 95–98% humidity. Then, HepG2.2.15 cell was plated at a density of 1 × 10^5 cells/mL in 96-well plates and incubated at 37 °C for 24 h and then treated with variant concentration of compounds in […]; every three days, in a nine day period, C (OD) values were recorded at 450 nm. After nine days, the percent of cell death was measured using the method of MTT assay after drug treatment. Cytotoxicity of these compounds was expressed as the concentration of compound required to kill 50% (CC50) of the HepG 2.2.15 cells.

HBeAg = assay: cells; settings: for HBeAg SI (selectivity index = CC50/IC50): CC50/IC50 for HBeAg
Experimental: as §1
(§2) Method for the HBsAg and HBeAg Inhibition Assays. The levels of HBV surface antigen (HBsAg) and HBV e antigen (HBeAg) in the supernatant of the HepG2.2.15 cells were determined by the enzyme-linked immunosorbent assay (ELISA) according to the manufacturer’s protocol (Shanghai Kehua Biotech Co., Ltd., Shanghai, China). The synthesized compounds were expressed as the concentration that achieved 50% inhibition (IC50) to the secretion of HBsAg and HBeAg. The selectivity index (SI) was determined as the ratio of CC50 to IC50 which a major pharmaceutical parameter of estimates possible future clinical application.

HBsAg = assay: cells; settings: for HBsAg SI (selectivity index = CC50/IC50): CC50/IC50 for HBsAg
Experimental: as §1, §2

HepG 2.2.15 cells = assay: Cytotoxicity in HepG 2.2.15 cells (MTT assay, nine days); type: cell-based, human; settings: after nine days, read-out: CC50 (50% cytotoxicity concentration)
Experimental: as §1

[2] = Hepatitis B virus, HepG2.2.15, read-out: HBeAg IC50
[3] = Hepatitis B virus, HepG2.2.15, read-out: HBsAg IC50
[4] = read-out: HBeAg IC50, secretion of HBeAg, HepG 2.2.15 cells, mean ± S.E.M., n = 3
[5] = read-out: HBsAg IC50, secretion of HBsAg, HepG 2.2.15 cells, mean ± S.E.M., n = 3

Compound | CC50 at 9 days [1] [µM] | HBeAg SI (selectivity index = CC50/IC50) (HBeAg; HepG 2.2.15 cells) | IC50 (HBeAg; [2]) [µM] | HBsAg SI (selectivity index = CC50/IC50) (HBsAg; HepG 2.2.15 cells) | IC50 (HBsAg; [3]) [µM] | IC50 (HBeAg; [4]) [µM] | IC50 (HBsAg; [5]) [µM] | CC50 (HepG 2.2.15 cells) [µM]
Nc1ccn([C@@H]2CS[C@H](CO)O2)c(=O)n1 [Compound 3TC, Lamivudine, reference compound] | 516 | – | – | – | – | – | – | –
O=C(CC/C(=N\O)c1ccccc1)OC1CCCCC1 [Compound 4A-1, Cyclohexyl (E)-4-hydroxyimino-4-phenylbutanoate] | 528 | 1.41 | 375 ± 36.2 | 1.04 | 506 ± 28.6 | – | – | –
CO/N=C(\CCC(=O)OC1CCCCC1)c1ccccc1 [Compound 4A-2, Cyclohexyl (E)-4-methoxyimino-4-phenylbutanoate] | 660 | 5.55 | 119 ± 13.2 | 6.03 | 109 ± 16.1 | – | – | –
O=C(CC/C(=N\OCc1ccccc1)c1ccccc1)OC1CCCCC1 [Compound 4A-3, Cyclohexyl (E)-4-benzyloxyimino-4-phenylbutanoate] | 974 | 7.53 | 129 ± 13.6 | 8.58 | 114 ± 6.15 | – | – | –
Cc1ccc(/C(CCC(=O)OC2CCCCC2)=N/O)cc1 [Compound 4B-1, Cyclohexyl (E)-4-hydroxyimino-4-(4-methylphenyl)butanoate] | 444 | 1.56 | 284 ± 26.7 | 1.72 | 257 ± 16.5 | – | – | –
Cc1ccc(/C(CCC(=O)OC2CCCCC2)=N/OCc2ccccc2)cc1 [Compound 4B-3, Cyclohexyl (E)-4-benzyloxyimino-4-(4-methylphenyl)butanoate] | 860 | 10.16 | 84.6 ± 6.6 | 10.95 | 78.5 ± 9.87 | – | – | –
COc1ccc(/C(CCC(=O)OC2CCCCC2)=N/O)cc1 [Compound 4C-1, Cyclohexyl (E)-4-hydroxyimino-4-(4-methoxyphenyl)butanoate] | 481 | 1.19 | 405 ± 4.8 | 0.98 | 489 ± 11.2 | – | – | –
CO/N=C(\CCC(=O)OC1CCCCC1)c1ccc(OC)cc1 [Compound 4C-2, Cyclohexyl (E)-4-methoxyimino-4-(4-methoxyphenyl)butanoate] | 630 | 4.92 | 128 ± 34.6 | 5.94 | 106 ± 8.67 | – | – | –
COc1ccc(/C(CCC(=O)OC2CCCCC2)=N/OCc2ccccc2)cc1 [Compound 4C-3, Cyclohexyl (E)-4-benzyloxyimino-4-(4-methoxyphenyl)butanoate] | 678 | 5.20 | 130 ± 21.5 | 6.08 | 112 ± 7.25 | – | – | –
CO/N=C(\CCC(=O)OC1CCCCC1)c1ccc(Cl)cc1 [Compound 4D-2, Cyclohexyl (E)-4-methoxyimino-4-(4-chlorophenyl)butanoate] | 581 | 6.83 | 85.1 ± 11.9 | 8.59 | 67.7 ± 8.81 | – | – | –
O=C(CC/C(=N\OCc1ccccc1)c1ccc(Cl)cc1)OC1CCCCC1 [Compound 4D-3, Cyclohexyl (E)-4-benzyloxyimino-4-(4-chlorophenyl)butanoate] | 604 | 6.25 | 96.8 ± 5.13 | 6.53 | 92.6 ± 4.94 | – | – | –
Cyclohexyl (E)-4-hydroxyimino-4-(4-chlorophenyl)butanimidate [Compound 4D-1] | – | – | – | – | – | 373 ± 16.9 | 352 ± 11 | 396
Cyclohexyl (E)-4-methoxyimino-4-(4-methoxyphenyl)butanoate [Compound 4B-2] | – | – | – | – | – | 49.4 ± 4.17 | 63.9 ± 6.26 | 856
